Laboratory results taken from patent US12377069B2, “Compounds, compositions, methods of using, and methods for preparing compounds” (UNIVERSITY OF LOUISVILLE RESEARCH FOUNDATION, INC., priority 2018, dated 2025).

How the values were obtained:
Caco2 cells = test: LPS depletion of Ocln in colon epithelial cells; format: cell-based, human; conditions: 10, 25, 50 μM, 24 h
Experimental: FIG. 12: UroA/UAS03 protect from LPS or alcohol induced depletion of Ocln and protected permeability. (A) Caco 2 cells were treated with LPS for 24 h at indicated doses and Western blots performed to determine expression of Ocln. (B) Caco2 cells were treated with LPS in combination with UroA or UAS03 (10, 25, 50 μM) for 24 h and determined Ocln expression.
UroA/UAS03 upregulate TJ proteins and protect against LPS induced damage: TJ proteins such as Cldn4, ZO-1, Ocln play a role in maintaining the gut epithelial integrity and protect the gut from external insults such as LPS. We investigated UroA/UAS03 effects on TJ protein regulation in colon epithelial cells, HT-29 and Caco2 cells. […] ALD is associated with disrupted TJs, increased permeability, inflammation and endotoxemia. Ocln is a tight junction protein expressed in intestinal epithelium and plays a role in maintenance of gut barrier function. We examined whether UroA/UAS03 can protect LPS (endotoxin) depletion of Ocln in colon epithelial cells. […] For this purpose, we have utilized Caco-2 monolayer cells on transwell membranes and performed transepithelial electrical resistance (TEER) and FITC-dextran permeability assays.

AhR^−/− mice = test: TNBS-induced colitis in AhR^−/− mice; format: in vivo, mouse; conditions: 20 mg/kg every 12 h; for serum IL-6 in AhR^−/− mice / serum TNF-α in AhR^−/− mice / shortening of colon lengths in AhR^−/− mice: 60 h post TNBS
Experimental: FIG. 8: UroA/UAS03 exert beneficial activities through AhR-dependent pathways. (A-F) Colitis was induced using TNBS in C57BL/6 (WT) and AhR^−/− mice (n=4/group 7-8 week old age). Mice were treated with Veh or UroA/UAS03 (20 mg/kg bodyweight) every 12 h post TNBS administration and mice were euthanized at post 60 h TNBS administration. (A) TNBS-induced colitis experimental design and treatment regimen. (B) Percent body weight loss (No TNBS-Solid black line; Veh+TNBS− Solid red line; UroA+TNBS− Solid blue line; UAS03+TNBS− Solid purple line), (C) representative colon images, (D) colon lengths, (E) gut permeability, (F) serum levels of IL-6 and TNF-α were determined. Statistical analysis was performed (unpaired t-test) using Graphpad Prism software. Error bars, ±SEM ***p<0.001; **p<0.01 *p<0.05. (G) AhR-Nrf2 dependent tight junction protein regulation by UroA/UAS03. UroA/UAS03 (L:ligands) bind to AhR and activate its nuclear translocation to induce expression of Cyp1A1 and Nrf2. […] (H) LPS (50 ng/ml)-induced IL-6 levels were measured in the presence of Vehicle or UroA or UAS03 (0.1, 1, 10, 20, 30 and 50 μM) in bone marrow derived macrophages (BMDM) from wild type (WT), Nrf2^−/− and AhR^−/− mice. The data is representative of two independent experiments with triplicates. Statistical analysis was performed (unpaired t-test) using Graphpad Prism software. Error bars, ±SEM ***p<0.001; **p<0.01 *p<0.05.
2,4,6-Trinitrobenzenesulfonic acid (TNBS)-induced colitis: Male C57BL/6 or Nrf2^−/− mice (6-8 week old age mice) were anesthetized with ketamine/xylazine (100 mg/12.5 mg/kg IP) mixture and administered with single dose of TNBS (2.5 mg/mice; Sigma Aldrich, USA) in 50% ethanol. After administration of TNBS, mice were held upside down for 30-60 sec to ensure proper distribution of TNBS in the colon. Control group received 50% ethanol without TNBS. Mice with TNBS were randomly divided into three groups, viz. vehicle (0.25% sodium carboxymethylcellulose (CMC)), UroA and UAS03. UroA or UAS03 was resuspended in 0.25% sodium-CMC at desired concentrations. The mice were given orally Veh or UroA or UAS03 in 100 μl at desired concentrations (4 or 20 mg/kg/body weight). The treatment started after 12 hours of TNBS administration and every 12 hours thereafter up to 72 hours. The experiment was terminated post 60 h TNBS, where AhR^−/− mice were involved. In some experiments, we treated only once at post 12 h TNBS administration. TNBS administered and control mice were euthanized for tissue and plasma collection after 80 hours of TNBS/ethanol treatment. Mice were examined for colitis phenotype.

Cyp1A1 = Cyp1A1 enzyme activity in colon and liver microsomes of treated mice; format: in vivo, mouse; conditions: 1 week; for Cyp1A1 activity in colon tissues compared to BNF and FICZ treated mice: UroA/UAS03 oral 20 mg/kg/day, FICZ i.p.; for Cyp1A1 activity increase in colons: i.p., UroA/UAS03 5 mg/kg/day, FICZ 1 μg/mouse/day; for Cyp1A1 activity in colon and liver, AhR^−/− mice / Cyp1A1 activity in colon and liver, wild type mice: oral 20 mg/kg, EROD
Experimental: Measurements of Cyp1A1 enzyme activity (Ex vivo): Mice were treated with Vehicle or UroA or UAS03, BNF or FICZ daily for one week at indicated concentration either through oral or i.p. route. After one week, mice were euthanized and the colon and liver tissues were dissected. Microsomes from these tissues were prepared using the following procedure (SINGH et al., (2013) “Evaluation of memory enhancing clinically available standardized extract of Bacopa monniera on P-glycoprotein and cytochrome P450 3A in Sprague-Dawley rats” PloS one, Vol. 8, Article e72517). For hepatic microsomes, liver was first perfused with 0.9% sodium chloride solution and excised out. Adhering blood and saline was removed by blotting on tissue paper and tissue was homogenized in tissue homogenization buffer (50 mM Tris-HCl, pH 7.4 with 250 mM sucrose). Homogenate was centrifuged at 10,000×g for 30 minutes at 4° C. supernatant obtained was further centrifuged at 105,000×g for 60 minutes at 4° C. The pellet was washed with homogenization buffer and centrifuged again at 105,000×g for 60 minutes at 4° C. The pellet was suspended in homogenization buffer and used for protein and CYP assay. For intestinal microsome preparation, intestine was removed and washed with 0.9% sodium chloride. The intestine was longitudinally cut open to expose mucosal layer and mucosa was scrapped with help of glass slide. The scraped tissue was collected in homogenization buffer (50 mM Tris-HCl buffer containing glycerol (20% v/v), protease inhibitor (1%) and heparin (3 U/ml)). This suspended mucosa was homogenized and centrifuged at 10,000×g for 20 minutes at 4° C. Supernatant obtained was further centrifuged at 105,000×g for 60 minutes at 4° C. The pellet was washed with buffer and centrifuged again at 105,000×g for 60 minutes at 4° C. The pellet was suspended homogenization buffer and used for protein and CYP enzymes assays.
Ethoxyresorufin-O-deethylase (EROD) assay: The microsomal proteins (0.5 mg) were mixed with 200 μL Tris buffer (0.1 M, pH 7.4) containing ethoxyresorufin (0.01 mM). To start reaction, NADPH (0.1 mM) was added and incubated at 37° C. for 10 min. After 10 min, reaction was terminated by adding equal volume of acetonitrile and reaction mixture was centrifuged at 13000×g for 10 min at 4° C. Supernatant was used to determine resorufin by measuring fluorescence (Ex. 530 nm, Em. 580 nm). Pure resorufin (Sigma Aldrich) was used to generate standard curve.
P450-Glo Cyp1A1 luminiscence assay: The above microsomes (20 μg) were used for P450-Glo Cyp1A1 luminiscence assays as per manufacturer's instructions.

For `Oc1ccc2c(c1)COc1cc(O)ccc1-2` [UAS03, 6H-benzo[c]chromene-3,8-diol], the “LPS depletion of Ocln” value (Caco2 cells) was “protected from depletion of Ocln”, the “rapid body weight loss in AhR^−/− mice treated with TNBS” value (AhR^−/− mice) was “some protective role” and the “serum IL-6 in AhR^−/− mice” value (AhR^−/− mice) was “did not appear to reduce IL-6”. For the same compound, the “serum TNF-α in AhR^−/− mice” value (AhR^−/− mice) was “slightly reduced”, the “shortening of colon lengths in AhR^−/− mice” value (AhR^−/− mice) was “did not appear to protect” and the “Cyp1A1 activity in colon tissues compared to BNF and FICZ treated mice” value (Cyp1A1) was “relatively more Cyp1A1 activity in colon tissues”. The “Cyp1A1 activity increase in colons” value (Cyp1A1) was ~3 fold, the “Cyp1A1 activity in colon and liver, AhR^−/− mice” value (Cyp1A1) was “but not in AhR^−/− mice” and the “Cyp1A1 activity in colon and liver, wild type mice” value (Cyp1A1) was “activated Cyp1A1 activity”.

With `O=c1oc2cc(O)ccc2c2ccc(O)cc12` [UroA, 3,8-dihydroxy-6H-dibenzo[b,d]pyran-6-one] the “LPS depletion of Ocln” value (Caco2 cells) was “protected from depletion of Ocln”, the “serum IL-6 in AhR^−/− mice” value (AhR^−/− mice) was “did not appear to reduce IL-6” and the “serum TNF-α in AhR^−/− mice” value (AhR^−/− mice) was “slightly reduced”. The “shortening of colon lengths in AhR^−/− mice” value (AhR^−/− mice) was “did not appear to protect”, the “Cyp1A1 activity in colon tissues compared to BNF and FICZ treated mice” value (Cyp1A1) was “relatively more Cyp1A1 activity in colon tissues” and the “Cyp1A1 activity increase in colons” value (Cyp1A1) was ~3 fold. The “Cyp1A1 activity in colon and liver, AhR^−/− mice” value (Cyp1A1) was “but not in AhR^−/− mice” and the “Cyp1A1 activity in colon and liver, wild type mice” value (Cyp1A1) was “activated Cyp1A1 activity”.
